As a reminder, the IC50 is the concentration that gives 50% inhibition. Higher therefore signals a need for much substance. The T/C is the ratio of treated to control. As usually defined, the Ki is a measure of affinity in units of concentration, obtained from inhibition or displacement. A low value points to higher affinity. In general, GI50 refers to the concentration giving 50% growth inhibition. Higher therefore signals lower sensitivity of the cells.

This note sets out measurements from the Kinase Knowledgebase extract (Sharma et al. 2016).

Several values for one entry are separate records, joined by “and”; a condition that tells them apart may be missing. Equal values may be shown once. A value given as a limit tells only on which side of the number the result lay.

Test [1] deals with EGFR (murine) (UniProt P00533). Particulars: f/l-herc.
EGFR (murine), sequence (P00533 whole entry, looked up): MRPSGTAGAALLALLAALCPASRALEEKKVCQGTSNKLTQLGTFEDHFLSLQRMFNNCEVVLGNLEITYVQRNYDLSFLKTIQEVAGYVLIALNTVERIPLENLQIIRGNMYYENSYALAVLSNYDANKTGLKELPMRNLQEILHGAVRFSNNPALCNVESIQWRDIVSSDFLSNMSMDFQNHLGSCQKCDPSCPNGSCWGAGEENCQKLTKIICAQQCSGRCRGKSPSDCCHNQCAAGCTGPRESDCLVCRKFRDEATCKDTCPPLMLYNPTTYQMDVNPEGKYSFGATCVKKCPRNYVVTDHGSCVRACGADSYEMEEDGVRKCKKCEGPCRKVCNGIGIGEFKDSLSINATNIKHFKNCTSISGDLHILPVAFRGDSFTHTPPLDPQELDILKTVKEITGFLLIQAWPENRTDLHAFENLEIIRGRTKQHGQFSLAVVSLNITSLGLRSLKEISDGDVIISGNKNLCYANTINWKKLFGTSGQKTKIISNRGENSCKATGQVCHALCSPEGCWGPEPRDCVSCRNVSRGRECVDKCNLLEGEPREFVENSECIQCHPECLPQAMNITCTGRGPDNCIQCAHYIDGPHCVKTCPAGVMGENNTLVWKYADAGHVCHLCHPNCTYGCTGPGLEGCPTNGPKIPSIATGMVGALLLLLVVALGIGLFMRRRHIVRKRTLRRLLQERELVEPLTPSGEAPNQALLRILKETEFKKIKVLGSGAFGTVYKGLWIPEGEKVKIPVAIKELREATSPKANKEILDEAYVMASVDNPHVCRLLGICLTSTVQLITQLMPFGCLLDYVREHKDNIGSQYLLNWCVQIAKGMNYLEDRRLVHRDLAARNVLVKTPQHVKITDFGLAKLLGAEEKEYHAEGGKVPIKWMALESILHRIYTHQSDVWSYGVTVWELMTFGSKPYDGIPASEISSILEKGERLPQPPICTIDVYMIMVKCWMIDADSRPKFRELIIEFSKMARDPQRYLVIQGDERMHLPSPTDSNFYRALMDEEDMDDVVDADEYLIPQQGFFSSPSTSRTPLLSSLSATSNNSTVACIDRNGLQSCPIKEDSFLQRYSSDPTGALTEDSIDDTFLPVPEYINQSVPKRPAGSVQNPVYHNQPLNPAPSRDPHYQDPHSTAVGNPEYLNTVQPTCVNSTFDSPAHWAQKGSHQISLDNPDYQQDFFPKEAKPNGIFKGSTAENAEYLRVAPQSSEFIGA
Test [2] concerns the target MAP2K1;MAPK14 (human) (UniProt Q16539). The test can be described thus: Inhibition of LnCAP Cell Proliferation by MTT Assay.
The test system of test [3] is MAP2K1;MAPK14 (mice). The test is described as follows: Inhibition of LOVO Cell Proliferation by Xenograft Model. Particulars: dose or concentration not given here.
The target in test [4] is MAP2K1;MAPK14 (human) (UniProt Q16539). The test is described as follows: Inhibition of BXPC3 Cell Proliferation by MTT Assay. Particulars: bxpc-3 pancreatic.
MAP2K1;MAPK14 (human), sequence (Q16539 whole entry, looked up): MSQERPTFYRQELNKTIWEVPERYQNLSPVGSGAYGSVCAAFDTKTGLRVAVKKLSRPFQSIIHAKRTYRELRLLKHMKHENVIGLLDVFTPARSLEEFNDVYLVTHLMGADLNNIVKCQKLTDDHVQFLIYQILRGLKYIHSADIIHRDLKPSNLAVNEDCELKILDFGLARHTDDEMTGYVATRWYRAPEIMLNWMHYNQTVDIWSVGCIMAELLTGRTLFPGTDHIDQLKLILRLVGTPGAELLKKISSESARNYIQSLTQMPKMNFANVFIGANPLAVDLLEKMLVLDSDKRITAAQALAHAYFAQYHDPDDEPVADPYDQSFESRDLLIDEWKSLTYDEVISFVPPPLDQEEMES
The target in test [5] is EGFR (murine) (UniProt P00533). Particulars: f/l-herc. This is another data set of the same source.
The target in test [6] is EGFR (human) (UniProt P00533). The settings on record: a431, concentration not given here.
EGFR (human), sequence (P00533 whole entry, looked up): as the sequence (P00533 whole entry, looked up) above
In test [7] the test system is MAPK14 (Balb/c mice). The test can be described thus: Inhibition of LPS Induced TNF-alpha Release in Mice.
Test [8] concerns the target MAPK14 (human) (UniProt Q16539). The test can be described thus: Inhibition of MAPK14 Kinase Activity.
The target of test [9] is PIK3CA (UniProt P42336). The test is described as follows: Inhibition of PIK3CA Kinase Activity.
The target of test [10] is MAPK14 (UniProt Q16539). The test can be described thus: In Vitro p38 Inhibition.
MAPK14, sequence (Q16539 whole entry, looked up): as the sequence (Q16539 whole entry, looked up) above
Test [11] deals with MAP2K1;MAPK14 (human) (UniProt Q16539). The test is described as follows: Inhibition of HT1197 Cell Proliferation by MTT Assay.
Test [12] has as its target EGFR (UniProt P00533).
Test [13] deals with CDK2 (UniProt P24941). The test is described as follows: Enzyme Assay.
The target of test [14] is CDK2 (UniProt P24941). The test can be described thus: Enzyme Assay. This is another data set of the same source.
Test [15] addresses EGFR (UniProt P00533). The source holds these as a separate data set.
Test [16] deals with MAPK14 (UniProt Q16539). The test can be described thus: p38 Inhibition.
Test [17] deals with EGFR (human) (UniProt P00533). The settings on record: f/l herc cells.
The target of test [18] is MAP2K1;MAPK14 (human) (UniProt Q16539). The test is described as follows: Inhibition of CaCO Cell Proliferation by MTT Assay. Particulars: caco-2.
Test [19] shares this target. The test can be described thus: Inhibition of LOVO Cell Proliferation by MTT Assay.
Test [20] has as its target ROCK2 (UniProt O75116). The test is described as follows: Inhibition of COS cell Derived Rho kinase (ROCKII).
For test [21], the target named is EGFR (human) (UniProt P00533). The settings on record: a431.
Test [22] addresses EGFR (human) (UniProt P00533). Particulars: a431. The source holds these as a separate data set.
The target in test [23] is EGFR (UniProt P00533). The source holds these as a separate data set.
EGFR, sequence (P00533 whole entry, looked up): as the sequence (P00533 whole entry, looked up) above
Test [24] concerns the target PIK3CG (human) (UniProt P48736). The test is described as follows: Inhibition of PIK3CG Kinase Activity by SPA Assay.
Test [25] concerns the target EGFR (murine) (UniProt P00533). Particulars: nih3t3.
Test [26] concerns the target EGFR (human) (UniProt P00533). The settings on record: a431. The source holds these as a separate data set.
The target in test [27] is MAPK14 (human) (UniProt Q16539). The test can be described thus: Inhibition of TNF-alpha Release from LPS Stimulated hPBMCs. Particulars: pbmc.
MAPK14 (human), sequence (Q16539 whole entry, looked up): as the sequence (Q16539 whole entry, looked up) above
Test [28] has as its target EGFR (UniProt P00533). This is another data set of the same source.
For test [29], the target named is CDK2 (UniProt P24941). The test is described as follows: Enzyme Assay. The source holds these as a separate data set.
Test [30] addresses EGFR (UniProt P00533). The source holds these as a separate data set.
Test [31] deals with EGFR (human) (UniProt P00533). Particulars: a431. This is another data set of the same source.

Regarding `O[C@H]1CC[C@H](Nc2ncc3ncnc(Nc4ccc5c(c4)-c4ccccc4C5)c3n2)CC1`, the IC50 in test [1] is above 10000 nM.
For `CCN1CCN(CCCOc2cc3ncc(C#N)c(Nc4ccc(Sc5nccn5C)c(Cl)c4)c3cc2OC)CC1`, the IC50 in [2] was 45 nM; in [4], 7 nM. Also, the T/C in [3] is 44%.
In the case of `CN1C2CC[C@]1(Nc1ncc3ncnc(Nc4ccc(F)c(Cl)c4)c3n1)CC(O)C2` (stereo partly drawn), the values for the IC50 in test [1] and in test [5] were 138 nM and above 10000 nM, respectively.
Molecule `C=CC(=O)Nc1ccc2ncnc(Nc3ccc(OCc4ccccc4)cc3)c2c1` yielded an activity in test [6] of 0%.
Regarding `CONC(=O)c1ccc(C)c(Nc2nc(N(C)CC(C)(C)C)nc(N3CCCN(C)CC3)n2)c1`, in test [7], the ED50 result was “Between 3 to 10 mg kg-1”. Besides, the Ki in test [8] worked out at 4.2 nM.
For `COc1ccc(-c2cc(=O)cc(N3CCOCC3)o2)cc1`, the IC50 in test [9] was above 50000 nM.
`O=C(CNS(=O)(=O)c1ccc(CNC(=O)c2ccc(Cl)cc2)s1)NCCNc1ccc(C(F)(F)F)cn1`: the IC50 in test [10] was above 30000 nM.
Turning to `COc1cc2c(Nc3ccc(Sc4nccn4C)c(Cl)c3)c(C#N)cnc2cc1OCCCN1CCOCC1`, the IC50 is 40 nM in test [2], 50 nM in [11] and 29 nM in test [4].
Turning to `Cc1cc(C)c(N2CCN(C)CC2)c(C)c1-c1nc(-c2ccncc2)c(-c2ccc(Cl)cc2)[nH]1`, the IC50 in test [12] is 50 nM.
As for `Cn1c2ccccc2c2cc[n+]3c(c21)C(=O)c1ccccc1-3`, the IC50 in test [13] and in test [14] was above 100000 nM in each case.
`Brc1cccc(Nc2ncnc3cc4c(cc23)OCCO4)c1` showed an IC50 in test [15] of 0.006 nM.
Consider `O=C(CNS(=O)(=O)c1ccc(CNC(=O)c2ccc(Cl)cc2)s1)NCCNc1ncc(C(F)(F)F)cc1Cl`, for which the IC50 in [10] and in test [16] was above 30000 nM each time.
The molecule `CCOC(=O)CN1CCN(C/C=C/C(=O)Nc2cc3c(Nc4ccc(F)c(Cl)c4)ncnc3cc2OCCC2CC2)CC1` yielded an IC50 in [17] of 17 nM.
Still for that read-out and setting: the figure for `CCC(=O)CN(C)C/C=C/C(=O)Nc1cc2c(N[C@H](C)c3ccccc3)ncnc2cc1OC` is 9 nM.
For `COc1cc2c(Nc3ccc(Sc4nccn4C)c(Cl)c3)c(C#N)cnc2cc1OCCC[N+]1([O-])CCSCC1`, the IC50 was above 1000 nM in [18] and 36 nM in test [19].
In turn, `CC(N)[C@H]1CC[C@H](C(=O)Nc2ccnc3[nH]ccc23)CC1` (stereo partly drawn) came in with an IC50 in test [20] of 48 nM.
As for `C/C(=C/c1cc2c(N)nc(N)nc2o1)c1ccc2ccccc2c1`, the IC50 in test [21] and in test [22] was above 50000 nM in each case.
The molecule `Cc1cc(C(=O)N2CCOCC2)[nH]c1/C=C1/C(=O)Nc2ncnc(N3CCCCC3)c21` gave a half-inhibitory concentration (IC50) in test [23] above 20000 nM.
In [24], `COc1ccccc1Cn1cnc2ccc(/C=C3\SC(=O)NC3=O)cc21` came in with an IC50 below 1000 nM.
Molecule `CC(C)S(=O)(=O)c1csc(NC(=O)Nc2ccc(C(C)(C)C)cc2)c1Cl` registered an IC50 in [25] above 100000 nM.
With `COCC1COc2cc3ncnc(Nc4cccc(Br)c4)c3cc2O1` (stereo not drawn), the GI50 in test [26] was 600 nM and 240 nM.
For `Cc1ccc(S(=O)(=O)Nc2ccc3c(c2)CNC(=O)N3c2c(Cl)cccc2Cl)cc1`, the IC50 in [27] was above 10000 nM.
`COc1cccc(-c2cn(-c3ccc(CC(=O)NCCO)cc3)c3ncncc23)c1` gave an IC50 in test [28] of 800 nM.
Consider `O=C1c2ccccc2-[n+]2ccc3c([nH]c4ccccc43)c21`, for which the IC50 was above 50000 nM in [13], above 250000 nM in test [29] and above 50000 nM in test [14].
In the case of `CO[C@@H](C#CC(=O)Nc1ccc2ncc(C#N)c(Nc3cccc(Br)c3)c2c1)CN1CCCC1`, the IC50 worked out at 150 nM in test [30] and 1200 nM in test [31].
